In patent US20250161232A1, “RETINOL FORMULATION (VI)” (DSM IP Assets B.V., priority 2022, published 2025):

Assay: Storage stability of retinol formulations at 40° C. (retinol content after storage)
Format: physicochemical
Details: storage at 40° C.
Description: To determine the stability of these formulations, they were stored (at 40° C.) for 2 weeks and 12 weeks. And the loss of retinol was measure (the initial value was 100%).

CC1=C(/C=C/C(C)=C/C=C/C(C)=C/CO)C(C)(C)CCC1 [retinol, Retinol]
cis/trans ratio of the retinol during storage (in words): stable
